# Tested on: mouse monoclonal antibodies (mAb) B8 against Btri
# Test: ELISA: binding of anti-Btri mAb to Streptavidin-coated plates modified with biotinylated Btri glycoconjugates
# Settings: for fluorescence intensity I (binding capacity / maximal activity): corrected fluorescence 355nm/460nm, at loading of maximal binding
# Protocol: Biot1-PNPA was used to prepare a polyacrylamide conjugate with blood group trisaccharide B (Btri), Galα1-3(Fucα1-2)Gal-(FIG. 1b, Glyc=Btri). The obtained end-labeled glycopolymer; biott-PHEAA-(Btri)x (molar fraction of Btri is 20%), was tested on ability to bind monoclonal antibodies (mAbs) against Btri in ELISA. Its antibody binding activity was compared to that of other biotinylated derivatives of Btri, two monomeric glycosides with Btri-biot linkers of different length and a glycopolymer, PHEAA-(Btri)x-bioty. The latter was synthesized by the routine approach (see FIG. 1a) and contained biotin residues randomly pendant to the polymer backbone as side groups.
# Dependence of signal in ELISA from loading of Streptaviditn-coated plates with biotynylated glycoconjugates is shown in FIG. 8. As shown, binding of antibodies with Streptavidin-coated plates modified with biotinilated glycoconjugates. The Streptavidin-coated plates were consequentially incubated with the glycoconjugates and mouse mAb; for development of the bound mAbs an anti-mouse alkaline phosphatase conjugate in combination with a fluorescent substrate were used. The detected fluorescence intensity is plotted against added per well amounts of a) Btri and b) biotin related to the quantity of Streptavidin in well. According the manufacturer 125 pmole Streptavidin is contained per well, the working well surface was calculated to be 9·10^15 Å^2. […] The antibody binding to surface modified with the biotinylated monovalent Btri-glycosides was noticeably lower then in the cases with the multivalent ligands. For the glycoside with a long linker, Btri-O(CH2)3NHCO(CH2)5NH-biot, assay signal was detected only when coating concentration of the glycoside exceeded 20 ng/well (0.18 mole biotin/mole Streptavidin, and 22 pmole of Btri/well).
# All chemicals and solvents apart from those mentioned below were purchased from Merck (Germany) and Fluka (Switzerland). The solvents were dried and purified by conventional procedures. Galα1-3(Fucα1-2)Galβ-O(CH2)3NH2, 4-Nitrophenylacrylate, PNPA and PHEAA-(Btri)x-biotiny were synthesized as described elsewhere. Mouse monoclonal antibodies (mAb) B8 against Btri were obtained from All-Russian Hematology Research Center, Moscow. Anti-mouse IgG+IgM (H+L)-alkaline phosphatase conjugate (Ig-AP) was the product of AP Biotech (UK). The organocobalt complexes used in this work were protected from light; their solutions were concentrated under vacuum with bath temperature kept below 35° C.
# Enzyme-Linked Immunosorbent Assay.
# Before test plates “Reacti-Bind Streptavidin Coated High Binding Capacity Black 96-Well Plate” (Pierce) were rinsed twice with PBS. Then serial tenfold dilutions of the biotinylated glycoconjugates contained Btri in PBS (0.02-200 μg ml^−1, […] per well) were added onto the plates for 1 h at 37° C. Plates were washed with PBS containing 0.1% Tween-20 (washing buffer). The same way plates were washed between all the next steps. After washing the plates were blocked with 3-% BSA in PBS. B8 mAbs (1:100 in PBS containing 0.3% BSA) were added and plates were incubated for 1 h at 37° C. After that plates were washed and incubated with Ig-AP (1:5000 in PBS containing 0.3% BSA) for 1 h at 37° C. […] After 30-min incubation at room temperature fluorescence intensity (355nm/460nm) was measured by “Victor^2” multilabel counter (PerkinElmer). The collected data were expressed in fluorescence units. Each assay was done in duplicate, blank reaction was performed by omitting mAb. The blank reading was subtracted from the final fluorescence to provide the corrected fluorescence intensity values.
substance,measurement,setting,value
Btri-O(CH2)3NHCO(CH2)5NH-biot,coating concentration above which assay signal was detected,"0.18 mole biotin/mole Streptavidin, 22 pmole of Btri/well",exceeded 20 ng/well
same,loading at which maximal binding of mAb / maximal activity was achieved,"Streptavidin-coated plate, 125 pmole Streptavidin per well, 200 ng/well = 186 pmol of Btri, 220 ng/well = 220 pmole of Btri/well",220 ng/well
same,fluorescence intensity I (binding capacity / maximal activity),,~70×10^4 f.u.
same,surface density of Btri at which binding with mAb reached maximal level,working well surface calculated to be 9·10^15 Å^2,about 15 residues/1000 Å^2
Btri-O(CH2)3NH-biot,interaction with mAb (in words),ELISA on Streptavidin-coated plates,exceptionally weak
same,fluorescence intensity I (binding capacity / maximal activity),,~5×10^4 f.u.

# — patent US20080076137A1, “Bioanalytic Systems and Methods” (priority 2006, published 2008)
